Laboratory results reported in ChEMBL document CHEMBL4304740, “Structure-Based Design of Selective β-Site Amyloid Precursor Protein Cleaving Enzyme 1 (BACE1) Inhibitors: Targeting the Flap to Gain Selectivity over BACE2” (J Med Chem, 2019).

Key:
physchem = details: octanol/phosphate buffered saline, pH 7.4
in vitro [1] = details: human, liver microsomes
in vitro [2] = details: mouse, liver microsomes
in vivo = details: Crl:CD(ICR), mouse, brain/plasma, po, 30 mg/kg

Question: What does the source list for `C[C@]1(c2cc(NC(=O)c3cnc(OCF)cn3)ccc2F)N=C(N)SCC12CCOCC2`?
Answer: logD (physchem): 1.2; remaining at 0.5 h, 0.1 µM (in vitro [1]): 51%; remaining at 0.5 h, 0.1 µM (in vitro [2]): 5%

Question: For `C[C@]1(c2cc(NC(=O)c3cnc(OCF)cn3)ccc2F)N=C(N)SCC12CCC(F)(F)CC2`, which logD (physchem) is on record?
Answer: 2.3

Question: And the remaining at 0.5 h, 0.1 µM (in vitro [1])?
Answer: 27%

Question: What about the Kp (in vivo) of the same compound?
Answer: 0.55

Question: And the remaining at 0.5 h, 0.1 µM (in vitro [2])?
Answer: 4.5%
